Measured values: US9682929B2, “Metalloprotease inhibitors, methods for producing same, and therapeutics uses thereof” (Centre National de la Recherche Scientifique-CNRS, priority 2013, dated 2017)

Key:
gelatinase MMP-9 = target: T1, gelatinase MMP-9 (Homo sapiens, UniProt P14780); experiment: Test for enzymatic inhibition of MMP-9 (colorimetric, thiopeptide substrate/DTNB); assay type: biochemical; conditions: purified human enzyme; for IC50: 1 h preincubation, 150 μM substrate, read-out: IC50 MMP9; for Ki: read-out: Ki MMP9
T1 construct: purchased Anaspec, USA
T1 sequence (P14780 94-707): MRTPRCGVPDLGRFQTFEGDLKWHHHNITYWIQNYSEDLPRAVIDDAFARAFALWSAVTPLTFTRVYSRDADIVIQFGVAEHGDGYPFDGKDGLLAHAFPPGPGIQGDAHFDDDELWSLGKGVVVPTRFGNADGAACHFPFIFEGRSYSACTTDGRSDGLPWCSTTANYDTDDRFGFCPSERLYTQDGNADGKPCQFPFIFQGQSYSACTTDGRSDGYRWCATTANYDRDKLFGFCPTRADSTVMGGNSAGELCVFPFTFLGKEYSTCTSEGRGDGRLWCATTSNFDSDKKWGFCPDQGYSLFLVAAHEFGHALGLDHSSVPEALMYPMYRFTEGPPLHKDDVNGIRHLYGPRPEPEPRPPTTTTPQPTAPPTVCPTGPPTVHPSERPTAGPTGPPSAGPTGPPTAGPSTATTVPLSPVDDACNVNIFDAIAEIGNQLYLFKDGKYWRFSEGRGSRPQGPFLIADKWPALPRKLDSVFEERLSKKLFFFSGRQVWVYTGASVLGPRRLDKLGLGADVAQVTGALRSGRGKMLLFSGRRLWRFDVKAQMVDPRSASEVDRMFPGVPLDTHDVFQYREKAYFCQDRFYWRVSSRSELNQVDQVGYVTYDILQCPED
Method: (§1) Protocols of the Tests for Enzymatic Inhibition of MMP-9 and MMP-12
(§2) The enzymatic tests for screening compounds 1 to 7 were carried out in solution on two purified human enzymes: the gelatinase MMP-9 (Anaspec, USA) and the metalloelastase MMP-12 (Anaspec, USA).
(§3) The principle is based on the cleavage, by the MMP-9 or MMP-12 enzyme, of a chromogenic substrate: the thiopeptide (Ac-Pro-Leu-Gly-[2-mercapto-4-methylpentanoyl]-Leu-Gly-OC2H5) (Enzo Life Sciences, USA).
(§4) The hydrolysis of this thiopeptide produces a sulfhydryl group which reacts with Ellman's reagent: 5,5′-dithiobis(2-nitrobenzoic acid) (DTNB) to form 2-nitro-5-thiobenzoic acid (TNB), which is detected by its absorbance at 412 nm
(§5) The tests are carried out in the buffer 50 mM Hepes, 10 mM CaCl2, 0.5% Brij35, 1 mM DTNB, pH 7.0 containing the purified MMP-9 and MMP-12 enzymes diluted to the final concentration of 0.8 μg/ml.
(§6) After preincubation of the enzymes (1 h at ambient temperature in the dark) with or without the products tested (minimum of four doses serially diluted one-in-ten), the cleavage reactions are initiated by adding 150 μM (final concentration) of substrate in a total final volume of 100 μl (96-well plate format).
(§7) The plates containing the reactions are read in a microplate reader (Multiskan Ascent, ThermoElectron, France) in order to continuously measure the absorbance and to record values every […] for 3 h. Each condition is carried out in triplicate.
(§8) The concentration which inhibits 50% of the reaction (IC50) is determined from curves representing the absorbance (optical density) of the final reaction product (TNB) as a function of the doses tested. Each experiment is carried out at least twice.

metalloelastase MMP-12 = target: T2, metalloelastase MMP-12 (Homo sapiens, UniProt P39900); experiment: Test for enzymatic inhibition of MMP-12 (colorimetric, thiopeptide substrate/DTNB); assay type: biochemical; conditions: purified human enzyme; for IC50: 1 h preincubation, 150 μM substrate, read-out: IC50 MMP12; for Ki: read-out: Ki MMP12
T2 construct: purchased Anaspec, USA
T2 sequence (P39900 106-470): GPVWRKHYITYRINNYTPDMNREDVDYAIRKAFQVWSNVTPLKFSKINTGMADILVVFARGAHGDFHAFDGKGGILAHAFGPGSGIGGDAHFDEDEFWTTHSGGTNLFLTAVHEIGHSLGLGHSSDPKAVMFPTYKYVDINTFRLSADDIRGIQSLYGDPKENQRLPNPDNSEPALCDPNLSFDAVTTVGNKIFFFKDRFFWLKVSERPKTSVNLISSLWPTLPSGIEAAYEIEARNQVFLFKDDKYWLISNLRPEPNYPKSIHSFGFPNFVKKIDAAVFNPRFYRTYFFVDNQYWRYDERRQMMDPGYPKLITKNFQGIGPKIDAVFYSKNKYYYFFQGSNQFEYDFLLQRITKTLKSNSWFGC
Method: as §1, §2, §3, §4, §5, §6, §7, §8

| IC50 (gelatinase MMP-9) [µM] | Ki (gelatinase MMP-9) [µM] | IC50 (metalloelastase MMP-12) [µM] | Ki (metalloelastase MMP-12) [µM] | Compound |
| --- | --- | --- | --- | --- |
| 18.1 | 8.95 | 19.5 | 9.95 | C=C[C@H](C(=O)N[C@@H](Cc1ccccc1)C(=O)NC1CCCCC1)[C@@H](C)O [Compound 1, (S)—N—((S)-1-(cyclohexylamino)-1-oxo-3-phenylpropan-2-yl)-2-((R)-1-hydroxyethyl)but-3-enamide] |
| 126 | 62.2 | 20 | 10.2 | C=C[C@H](C(=O)N[C@@H](Cc1ccccc1)C(=O)NC1CCCCC1)[C@H](O)c1ccc(-c2ccccc2)cc1 [Compound 2, (S)-2-((S)-biphenyl-4-yl(hydroxy)methyl)-N—((S)-1-(cyclohexylamino)-1-oxo-3-phenylpropan-2-yl)but-3-enamide] |
| 5 | 2.47 | 7.23 | 3.68 | C=C[C@H](C(=O)N[C@@H](Cc1ccccc1)C(=O)NC1CCCCC1)[C@H](O)c1cc(OCc2ccc(OC)cc2)n(-c2ccccc2)n1 [Compound 3, (S)—N—((S)-1-(cyclohexylamino)-1-oxo-3-phenylpropan-2-yl)-2-((S)-hydroxy(5-(4-methoxybenzyloxy)-1-phenyl-1H-pyrazol-3-yl)methyl)but-3-enamide] |
| 259 | 128 | 20.2 | 10.3 | C=C[C@H](C(=O)N[C@@H](Cc1ccccc1)C(=O)O)[C@H](O)c1cc(OCc2ccc(OC)cc2)n(-c2ccccc2)n1 [Compound 4, (S)-2-((S)-2-((S)-hydroxy-(5-(4-methoxybenzyloxy)-1-phenyl-1H-pyrazol-3-yl)methyl)but-3-enamido)-3-phenylpropanoic acid] |
| 19.8 | 9.78 | 22.3 | 11.4 | C=C[C@H](C(=O)N[C@@H](Cc1ccccc1)C(=O)NO)[C@H](O)c1cc(OCc2ccc(OC)cc2)n(-c2ccccc2)n1 [Compound 5, (S)-2-((S)-hydroxy-(5-(4-methoxybenzyloxy)-1-phenyl-1H-pyrazol-3-yl)methyl)-N—((S)-1-(hydroxyamino)-1-oxo-3-phenylpropan-2-yl)but-3-enamide] |
| 13.1 | 6.47 | 6.3 | 3.21 | C=C[C@H](C(=O)N[C@@H](CC(=O)O)C(=O)O)[C@H](O)c1cc(OCc2ccc(OC)cc2)n(-c2ccccc2)n1 [Compound 6, (S)-2-((S)-2-((S)-hydroxy-(5-(4-methoxybenzyloxy)-1-phenyl-1H-pyrazol-3-yl)methyl)but-3-enamido)succinic acid] |
| 330 | 163 | 78.3 | 39.9 | C=C[C@H](C(=O)N[C@@H](CCSC)C(=O)O)[C@H](O)CCCC [Compound 7, (S)-2-((2S,3R)-3-hydroxy-2-vinylheptanamido)-4-(methylthio)butanoic acid] |
